Where two headings read alike, the source gives them in different places. Marks after values point to notes of the source that are not given here.
Tests used:
postmenopausal women = experiment: ERC-210 phase III trial, MENQOL questionnaire (sexual domain and summary score); assay type: in vivo; settings: for MENQOL sexual domain, average percentage of change from baseline, percentages of the three DHEA doses combined: 12 weeks; for MENQOL Avoiding intimacy, average % change from baseline to Week 12 in severity score over placebo / MENQOL Sexual desire, average % change from baseline to Week 12 in severity score over placebo / MENQOL Vaginal dryness at sexual activity, average % change from baseline to Week 12 in severity score over placebo: average of the 3 DHEA doses
Description: The example below is intended only to illustrate a particular embodiment of the present invention and is not meant to limit the scope of the invention in any manner. This study (ERC-210) is a phase III, prospective, multicentre, randomized, placebo-controlled, and double-blind trial. […] The DHEA ovules or suppositories (Vaginorm™) containing prasterone in a lipophilic base were manufactured by Recipharm, Karlskoga, Sweden. The study was divided into two phases, namely screening followed by a treatment period of 12 weeks. The protocol was approved by the Institutional Review Board of the Centre Hospitalier de I'Université Laval (Quebec City, Canada), McGill University (Montreal, Canada), Ethica (Montreal, Canada), Eastern Virginia Medical School (Norfolk, Va., USA) and the Western Institutional Review Board (Los Angeles, USA).
The inclusion and exclusion criteria were as described in (Labrie, Archer et al. 2009b). A written informed consent was obtained from all subjects prior to the performance of any study-related procedure. […] A partial gynecological examination was performed to evaluate the aspect of the mucosa and tolerance to the medication on day 1 and at all visits. The standard laboratory tests, namely hematology (including complete blood count and coagulation), blood chemistry and urinalysis were performed at screening, day 1 and at all visits. Summary tabulations were prepared displaying the number of observations, mean or geometric mean as appropriate, SD; SEM, 95% two-sided CI; median, minimum, and maximum for continuous variables; and the number and percentage per category for categorical data. Statistical analyses were performed at the two-sided significance level of 0.05 unless otherwise stated. […] The endpoints for analysis consisted of the following: desire/interest, arousal and orgasm were self-rated by the women at screening, at day 1, and at week 4, 8 and 12 using the ASF and MENQOL questionnaires. Baseline was defined as the value on day 1, obtained before first use of the study treatment, and change from baseline to week 12 was calculated for each participant for each domain endpoint. The analysis comparing each dose of DHEA to placebo was performed by analysis of covariance, with the baseline value used as the covariate. Missing values were replaced by the last observation made.
The three questions covered by the sexual domain of the MENQOL questionnaire are change in sexual desire, intimacy avoidance and vaginal dryness during sexual activity. In our previous publication (Labrie, Archer et al. 2009a), only women having a score value at baseline and week 12 were used in the calculations while the present evaluation carries forward the last value obtained after baseline when data at week 12 are missing. […] Since the number of women is as low as 12 in some groups for some parameters after the distribution is made between women with and without MS, the calculations have also been performed with the combination of the three prasterone doses, although the number of women remains low in the corresponding placebo group.

vaginal nerve fibers = settings: rat, lamina propria and muscularis, cited from earlier work
[1] = 0.25% DHEA intravaginal daily 12 weeks, MS pain at sexual activity at baseline
[2] = 0.5% DHEA intravaginal daily 12 weeks, MS pain at sexual activity at baseline
[3] = 0.5% DHEA intravaginal daily 12 weeks, all subjects (ITT)
[4] = 1.0% DHEA intravaginal daily 12 weeks, no MS pain at sexual activity at baseline
[5] = Pool 3 Doses DHEA intravaginal daily 12 weeks, MS pain at sexual activity at baseline
[6] = Pool 3 Doses DHEA intravaginal daily 12 weeks, MS pain at sexual activity at baseline, listed as prasterone
[7] = Pool 3 Doses DHEA intravaginal daily 12 weeks, all subjects (ITT)
[8] = Pool 3 Doses DHEA intravaginal daily 12 weeks, all subjects (ITT), listed as prasterone
[9] = Pool 3 Doses DHEA intravaginal daily 12 weeks, no MS pain at sexual activity at baseline
[10] = Pool 3 Doses DHEA intravaginal daily 12 weeks, no MS pain at sexual activity at baseline, listed as prasterone

C[C@]12CC[C@H](O)CC1=CC[C@@H]1[C@@H]2CC[C@]2(C)C(=O)CC[C@@H]12 [DHEA, (3β)-3-Hydroxyandrost-5-en-17-one]
MENQOL Avoiding intimacy (Q 29) severity score, average % change from baseline to Week 12 (decreased from baseline) (postmenopausal women; [1]): 41%
MENQOL SUMMARY SCORE of the four domains, average % change from baseline to Week 12 (decreased from baseline) (postmenopausal women; [1]): 24%**
MENQOL Sexual desire (Q 27) severity score, average % change from baseline to Week 12 (decreased from baseline) (postmenopausal women; [1]): 48%
MENQOL Vaginal dryness during intercourse (Q28) severity score, average % change from baseline to Week 12 (decreased from baseline) (postmenopausal women; [1]): 45%
MENQOL SUMMARY SCORE of the four domains, average % change from baseline to Week 12 (decreased from baseline) (postmenopausal women; 0.25% DHEA intravaginal daily 12 weeks, all subjects (ITT)): 24%**
MENQOL SUMMARY SCORE of the four domains, average % change from baseline to Week 12 (decreased from baseline) (postmenopausal women; 0.25% DHEA intravaginal daily 12 weeks, no MS pain at sexual activity at baseline): 25%*
MENQOL Avoiding intimacy (Q 29) severity score, average % change from baseline to Week 12 (decreased from baseline) (postmenopausal women; [2]): 43%
MENQOL SUMMARY SCORE of the four domains, average % change from baseline to Week 12 (decreased from baseline) (postmenopausal women; [2]): 19%
MENQOL Sexual desire (Q 27) severity score, average % change from baseline to Week 12 (decreased from baseline) (postmenopausal women; [2]): 36%
MENQOL SUMMARY SCORE of the four domains, average % change from baseline to Week 12 (decreased from baseline) (postmenopausal women; [3]): 18%
MENQOL Sexual desire (Q 27) severity score, average % change from baseline to Week 12 (decreased from baseline) (postmenopausal women; [3]): 31%
MENQOL SUMMARY SCORE of the four domains, average % change from baseline to Week 12 (decreased from baseline) (postmenopausal women; 0.5% DHEA intravaginal daily 12 weeks, no MS pain at sexual activity at baseline): 12%
MENQOL SUMMARY SCORE of the four domains, average % change from baseline to Week 12 (decreased from baseline) (postmenopausal women; 1.0% DHEA intravaginal daily 12 weeks, MS pain at sexual activity at baseline): 22%*
MENQOL SUMMARY SCORE of the four domains, average % change from baseline to Week 12 (decreased from baseline) (postmenopausal women; 1.0% DHEA intravaginal daily 12 weeks, all subjects (ITT)): 20%*
MENQOL Avoiding intimacy (Q 29) severity score, average % change from baseline to Week 12 (decreased from baseline) (postmenopausal women; [4]): 27%
MENQOL SUMMARY SCORE of the four domains, average % change from baseline to Week 12 (decreased from baseline) (postmenopausal women; [4]): 14%
MENQOL Sexual desire (Q 27) severity score, average % change from baseline to Week 12 (decreased from baseline) (postmenopausal women; [4]): 35%
Changes over placebo, sum of the three questions of the MENQOL sexual function domain (postmenopausal women; MS pain group): 62.8%
Specific (above placebo) effect in MENQOL, global increase over placebo (postmenopausal women; MS pain group): 0.78 fold
MENQOL sexual domain, average percentage of change from baseline, percentages of the three DHEA doses combined (postmenopausal women; MS pain group): 49.0%
MENQOL Avoiding intimacy (Q 29) severity score, average % change from baseline to Week 12 (decreased from baseline) (postmenopausal women; [5]): 46.4%*
MENQOL SUMMARY SCORE of the four domains, average % change from baseline to Week 12 (decreased from baseline) (postmenopausal women; [5]): 21.4%*
MENQOL Sexual desire (Q 27) severity score, average % change from baseline to Week 12 (decreased from baseline) (postmenopausal women; [5]): 45.0%
MENQOL Sexual domain severity score, average % change from baseline to Week 12 (decreased from baseline) (postmenopausal women; [5]): 48.4%**
MENQOL Vaginal dryness during intercourse (Q28) severity score, average % change from baseline to Week 12 (decreased from baseline) (postmenopausal women; [5]): 52.4%**
MENQOL Avoiding intimacy (Q 29) severity score, average % change from baseline to Week 12 (decreased from baseline) (postmenopausal women; [6]): 46.4%
MENQOL SUMMARY SCORE of the four domains, average % change from baseline to Week 12 (decreased from baseline) (postmenopausal women; [6]): 21.4%
MENQOL Sexual desire (Q 27) severity score, average % change from baseline to Week 12 (decreased from baseline) (postmenopausal women; [6]): 45%
MENQOL Sexual domain severity score, average % change from baseline to Week 12 (decreased from baseline) (postmenopausal women; [6]): 48.4%
MENQOL Vaginal dryness during intercourse (Q28) severity score, average % change from baseline to Week 12 (decreased from baseline) (postmenopausal women; [6]): 52.4%
MENQOL Avoiding intimacy (Q 29) severity score, average % change from baseline to Week 12 (decreased from baseline) (postmenopausal women; [7]): 44.8%**
MENQOL SUMMARY SCORE of the four domains, average % change from baseline to Week 12 (decreased from baseline) (postmenopausal women; [7]): 20.8%**
MENQOL Sexual desire (Q 27) severity score, average % change from baseline to Week 12 (decreased from baseline) (postmenopausal women; [7]): 44.0%**
MENQOL Sexual domain severity score, average % change from baseline to Week 12 (decreased from baseline) (postmenopausal women; [7]): 46.7%**
MENQOL Vaginal dryness during intercourse (Q28) severity score, average % change from baseline to Week 12 (decreased from baseline) (postmenopausal women; [7]): 49.9%**
MENQOL Avoiding intimacy (Q 29) severity score, average % change from baseline to Week 12 (decreased from baseline) (postmenopausal women; [8]): 44.8%
MENQOL SUMMARY SCORE of the four domains, average % change from baseline to Week 12 (decreased from baseline) (postmenopausal women; [8]): 20.8%
MENQOL Sexual desire (Q 27) severity score, average % change from baseline to Week 12 (decreased from baseline) (postmenopausal women; [8]): 44%
MENQOL Sexual domain severity score, average % change from baseline to Week 12 (decreased from baseline) (postmenopausal women; [8]): 46.7%
MENQOL Vaginal dryness during intercourse (Q28) severity score, average % change from baseline to Week 12 (decreased from baseline) (postmenopausal women; [8]): 49.9%
MENQOL Avoiding intimacy (Q 29) severity score, average % change from baseline to Week 12 (decreased from baseline) (postmenopausal women; [9]): 36.6%*
MENQOL SUMMARY SCORE of the four domains, average % change from baseline to Week 12 (decreased from baseline) (postmenopausal women; [9]): 18.0%*
MENQOL Sexual desire (Q 27) severity score, average % change from baseline to Week 12 (decreased from baseline) (postmenopausal women; [9]): 40.2%**
MENQOL Sexual domain severity score, average % change from baseline to Week 12 (decreased from baseline) (postmenopausal women; [9]): 39.2%**
MENQOL Vaginal dryness during intercourse (Q28) severity score, average % change from baseline to Week 12 (decreased from baseline) (postmenopausal women; [9]): 38.2%**
MENQOL Avoiding intimacy (Q 29) severity score, average % change from baseline to Week 12 (decreased from baseline) (postmenopausal women; [10]): 36.6%
MENQOL SUMMARY SCORE of the four domains, average % change from baseline to Week 12 (decreased from baseline) (postmenopausal women; [10]): 18%
MENQOL Sexual desire (Q 27) severity score, average % change from baseline to Week 12 (decreased from baseline) (postmenopausal women; [10]): 40.2%
MENQOL Sexual domain severity score, average % change from baseline to Week 12 (decreased from baseline) (postmenopausal women; [10]): 39.2%
MENQOL Vaginal dryness during intercourse (Q28) severity score, average % change from baseline to Week 12 (decreased from baseline) (postmenopausal women; [10]): 38.2%
MENQOL Avoiding intimacy, average % change from baseline to Week 12 in severity score over placebo (postmenopausal women; MS PAIN at baseline): 21.4%*
MENQOL Sexual desire, average % change from baseline to Week 12 in severity score over placebo (postmenopausal women; MS PAIN at baseline): 18.0%
MENQOL Vaginal dryness at sexual activity, average % change from baseline to Week 12 in severity score over placebo (postmenopausal women; MS PAIN at baseline): 23.4%**
MENQOL Avoiding intimacy, average % change from baseline to Week 12 in severity score over placebo (postmenopausal women; NO MS PAIN at baseline): 27.4%*
MENQOL Sexual desire, average % change from baseline to Week 12 in severity score over placebo (postmenopausal women; NO MS PAIN at baseline): 34.1%**
MENQOL Vaginal dryness at sexual activity, average % change from baseline to Week 12 in severity score over placebo (postmenopausal women; NO MS PAIN at baseline): 38.2%**
MENQOL Avoiding intimacy, average % change from baseline to Week 12 in severity score over placebo (postmenopausal women; TOTAL (all women)): 22.8%**
MENQOL Sexual desire, average % change from baseline to Week 12 in severity score over placebo (postmenopausal women; TOTAL (all women)): 22.0%**
MENQOL Vaginal dryness at sexual activity, average % change from baseline to Week 12 in severity score over placebo (postmenopausal women; TOTAL (all women)): 26.9%**
Changes over placebo, sum of the three questions of the MENQOL sexual function domain (postmenopausal women; no MS pain group): 99.7%
Specific (above placebo) effect in MENQOL, global increase over placebo (postmenopausal women; non MS pain group): 5.5 fold
MENQOL sexual domain, average percentage of change from baseline, percentages of the three DHEA doses combined (postmenopausal women; non MS pain group): 33.3%
Higher specificity of correction of sexual dysfunction (over placebo), MENQOL (postmenopausal women; women with no MS pain versus MS pain at baseline): 6.8 fold
Density of vaginal nerve fibers (vaginal nerve fibers): increases the density of nerve fibers
Density of vaginal nerve fibers (vaginal nerve fibers; listed as prasterone): stimulatory effect

From patent US20140045806A1 (priority 2012, published 2014)
